Experiment: gradient 5% acetonitrile 3 min, to 50% in 2 min, to 85% in 15 min, held 3 min, 100 µL/min
Conditions: column: Zorbax Extend-C18 2.1 x 50 mm; eluents: water / acetonitrile, 0.1% formic acid
How it was run: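 Retention time was recorded from adduct peaks, which were picked computationally and each inspected manually. Pure standards ran in mixtures of ~100 molecules on HPLC coupled to a quadrupole time-of-flight mass spectrometer, in positive and negative ionization mode, through a Zorbax Extend-C18 column (2.1 × 50 mm, 1.8 μm) at 100 μL/min. Eluents were water and acetonitrile, each with 0.1% formic acid.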

RP-LC retention time | SMILES
699 s | CC(C)n1c(=O)c(NCc2ccccc2Br)nc2ccncc21
604 s | O=C(O)C1CN(C(=O)COc2ccccc2F)C1
684 s | O=C(CCC1CCN(c2cc(NC3CC3)ncn2)CC1)NCc1ccc(F)cc1F
872 s | CCC1CCCCN1C(=O)CC1CCN(S(=O)(=O)c2ccc3c(c2)oc(=O)n3C)CC1 (centres undefined)
590 s | O=C(c1cc(-c2ccncc2)n[nH]1)N1CCN(C(=O)C2(c3ccccc3)CC2)CC1
602 s | CN1C(=O)[C@H]2CN(Cc3cc(F)ccc3F)C[C@H]2C1=O
785 s | CN(Cc1ccoc1)C(=O)Nc1ccccc1
722 s | COc1ccc(Cl)cc1S(=O)(=O)N1CCC(c2cc3n(n2)CCCNC3=O)CC1
722 s | CS(=O)(=O)Nc1ccc(-c2noc(CNC(=O)Cc3ccccc3)n2)cc1
1040 s | COc1cc(OC)cc(C(=O)Nc2nc(-c3ccc4c(c3)N(C)C(=O)C(C)O4)cs2)c1 (centres undefined)
1090 s | O=C(NCCc1ccco1)C1CCCN(c2nc3ccccc3n(Cc3ccccc3)c2=O)C1 (centres undefined)
662 s | O=C1CSc2ccc(S(=O)(=O)N3CCC(C(=O)NC4CC4)CC3)cc2N1
609 s | COC(=O)C1=C(CN2CCOCC2)NC(=O)NC1c1ccc(C)cc1C (centres undefined)
651 s | O=C(c1cccnc1)N1CCC(Oc2cc(N3CCCCC3)ncn2)C1 (centres undefined)
849 s | COc1ccc(C(=O)N2CCN(c3nc(-c4ccccc4)no3)CC2)cc1OC
1150 s | COc1ccc(-c2noc(C3(NC(=O)c4ccc(F)cc4)CCCCC3)n2)cc1
1050 s | COc1cccc(/C=C/C(=O)NC2(c3nc(C(C)C)no3)CCCCC2)c1
833 s | Cc1ccc(-n2nc(N3CCN(C(=O)Nc4ccccc4Cl)CC3)ccc2=O)cc1
677 s | CCC(Oc1ccc(=O)n(-c2ccc(F)cc2)n1)C(=O)NCCCOC (centres undefined)
908 s | O=C(NCc1cccc(C(F)(F)F)c1)c1cn2nc(Cl)ccc2n1
542 s | CC1CCN(C(=O)c2cc3c(s2)CCC(C(=O)NCCCN2CCOCC2)C3)CC1 (centres undefined)
997 s | Cc1ccc(C)c(N2CCN(c3ccnc(SCC(=O)Nc4ccc(F)c(Cl)c4)n3)CC2)c1

RP-LC retention time | SMILES
655 s | COc1ccc(CNC(=O)Nc2cccc(-c3ccc(N4CCOCC4)nn3)c2)cc1
573 s | COCCNC(=O)c1ccc2nc(CCc3ccc(NC(C)=O)cc3)[nH]c2c1
637 s | Cc1ccccc1NC(=O)c1nnc(CSCC(=O)N2CCN(c3ccccn3)CC2)s1
604 s | Cc1scc2nc(C3CCC3)nc(N3CCC(C(=O)NCc4ccc(N(C)C)cc4)CC3)c12
654 s | Cc1cnc(C2CC2)n1C1CCCN(S(=O)(=O)c2ccccc2)C1 (centres undefined)
1020 s | CCOC(=O)c1nc(Nc2ccc(C(C)C)cc2)c2ccccc2n1
627 s | COc1cc(NC(=O)N2CCN(c3cc(C)nc(N4CCOCC4)n3)CC2)cc(OC)c1
798 s | CC(=O)Nc1nsc(N2CCC(C(=O)NCc3ccc(F)cc3F)CC2)n1
676 s | CCC(C(=O)N1CCC(N2CCCCC2)CC1)n1nc(C)c2sc3ccccc3c2c1=O (centres undefined)
627 s | O=C(NCCN1CCCC1)c1cc2n(n1)CCCN(Cc1ccc(Cl)cc1)C2=O
991 s | O=C(Nc1nc(-c2ccccc2)cs1)NC1CCCCC1
990 s | Cc1ccc(Nc2c(-c3ccc(N(C)C)cc3)nc3cnccn23)cc1Br
858 s | CCS(=O)(=O)c1nc2ccc(NS(=O)(=O)c3ccccc3Cl)cc2s1
594 s | CC(C)CN(C1CCOCC1)C1CN(C(=O)Nc2ccccc2)C1
618 s | Cc1c(CNCc2cccnc2)c(C(=O)O)c(C)n1Cc1cccc(F)c1
637 s | Cc1ccc(S(=O)(=O)NCCn2ncccc2=O)s1
821 s | O=c1n(Cc2c(F)cccc2Cl)nc2ccc(S(=O)(=O)N3CCOCC3)cn12
1040 s | CCCn1c(=O)c(C)nc2cc(-c3noc(Cc4ccc(OC)cc4)n3)ccc21
505 s | CCC(=O)NCc1nc2c(n1C)CN(C(=O)c1ccccc1Br)CC2
1260 s | O=C(Nc1nc(-c2ccc(-c3ccccc3)cc2)cs1)C1CCCC1
727 s | O=C(Nc1ccc(F)cc1Cl)C1CCN(C(=O)c2cccn2-c2cccnc2)CC1
1210 s | Cc1ccc(-n2cc(C(=O)OCC(=O)OC(C)(C)C)c3ccccc3c2=O)cc1

RP-LC retention time | SMILES
925 s | CCc1ccc(C(=O)N2CC3CN(S(=O)(=O)c4cccc(C)c4)CC(C2)O3)cc1
903 s | CCS(=O)(=O)Nc1ccc(C2(C(=O)NCc3ccccc3)CCCCC2)cc1
767 s | CCN(C(=O)C1CCC(C)CC1)c1nc(-c2ccc(C)cc2)cs1 (centres undefined)
1020 s | CCCCn1cc(S(=O)(=O)Nc2cccc(Cl)c2)c2cccnc21
724 s | COc1ccc(NC(=O)Cn2c(=O)c3cc(C)nn3c3ncccc32)cc1Cl
750 s | CN(C)C(=O)c1ccc2c(c1)N(CC(=O)Nc1ccc3c(c1)OCCO3)C(=O)C1CCCCN21 (centres undefined)
852 s | O=C([C@@H]1C[C@H](F)CN1S(=O)(=O)c1ccc(Cl)cc1)N1CCCCC1
687 s | O=C(CCNc1c(-c2ccccc2)nc2cnccn12)NCc1ccc(F)cc1
962 s | Cc1noc(-c2cccn2Cc2cccc(F)c2)n1
835 s | CC(=O)N1CCc2ccccc2C1C(=O)NCc1ccc(Br)cc1 (centres undefined)
966 s | CCOC(=O)C1=C(CNc2ccc(C(F)(F)F)cc2)NC(=O)NC1c1ccc2c(c1)OCO2 (centres undefined)
1110 s | CCOc1ccccc1-c1nc(-c2ccc3nnn(CC)c3c2)no1
595 s | Cc1ccc(CN2CCC(C(=O)N3CCCCCCNC(=O)CC3)CC2)s1
809 s | COCCn1cc(C(=O)NCc2c(F)cccc2F)c2nn(-c3ccccc3)c(=O)c-2c1
668 s | COc1ccc(NC(=O)NCC2CCOCC2)cc1F
732 s | Cc1cc(CC(=O)N2CC(F)(F)C[C@H]2c2nc(C)no2)on1
1030 s | CCCCn1cc(S(=O)(=O)NCc2ccc(F)cc2Cl)c2cccnc21
614 s | CCNC(=O)c1cc(=O)[nH]c2c(Cl)cccc12
1150 s | Cc1ccc(-c2nc(NC(=O)CCc3ccccc3)sc2C)cc1
587 s | Cc1ccccc1Cn1c(N2CCC(C(=O)N3CCN(c4ccccn4)CC3)CC2)nc2ccccc21
775 s | COCC(=O)Nc1cc2c(cc1N1CCCCC1)n(C)c(=O)c(=O)n2C
869 s | CCn1cc(S(=O)(=O)Nc2ccc(C)cc2F)c2cccnc21

RP-LC retention time | SMILES
928 s | Cn1nc(-c2nnc(-c3ccccc3F)o2)c2c1CCN(S(=O)(=O)c1cc(F)ccc1F)C2
864 s | Cc1cc([N+](=O)[O-])ccc1NC(=O)C(=O)NCc1cccs1
603 s | Cc1nc(C)c(-c2nnc(NC(=O)c3ccno3)o2)s1
832 s | O=C1NC2(CCN(C(=O)c3cccc(Cl)c3)CC2)N=C1c1ccccc1
659 s | CNc1nc(Nc2ccccc2OC)nc2ccccc12
741 s | O=C(NC1CC1)c1ccc(OCC2CCCN2C(=O)c2c(F)cccc2F)cc1 (centres undefined)
628 s | CN(C)C(=O)c1ccc2c(c1)nc(CN(C)C(=O)Nc1ccc(Br)cc1)n2C
1260 s | CCc1ccccc1NC(=O)C1CCCN(c2nc3c(s2)c(C)nn3-c2cccc(F)c2)C1 (centres undefined)
1050 s | CC(C)c1ccc(S(=O)(=O)N2CCC(C)(C(=O)NCc3ccc(F)cc3)CC2)cc1
1300 s | Cc1ccc(S(=O)(=O)N2CCCC2c2nc(-c3ccc(Cl)cc3)no2)cc1C (centres undefined)
928 s | CC(C)n1c(N2CCN(C(=O)COc3ccc(Cl)cc3)CC2)cc(=O)n(C(C)C)c1=O
992 s | Cc1nc(C)c(C(=O)Nc2nc(-c3ccc(Cl)cc3)cs2)s1
814 s | Cc1cc(N(C)C)nc(N2CCN(S(=O)(=O)c3ccc(-c4ccccc4)cc3)CC2)n1
948 s | Cc1cc(NC(=O)Cn2nc(C(=O)N3CCCC3)c3ccccc32)ccc1Br
937 s | COc1ccc(-c2nc(C3CC(=O)N(c4ccc(C)cc4)C3)no2)cc1OC (centres undefined)
734 s | O=S(=O)(c1cccnc1)N1CCC(c2nnc(-c3ccc(F)cc3)o2)CC1
844 s | O=C(Nc1cccc(F)c1)C1CC(=O)N(CCc2c[nH]c3ccc(Cl)cc23)C1 (centres undefined)
1050 s | CCc1ccc(Oc2cc(N3CCC(C(=O)NCc4ccc(C)cc4)CC3)ncn2)cc1
1090 s | CCCCOc1cccc(C(=O)N(Cc2ccc(Br)o2)C2CCS(=O)(=O)C2)c1 (centres undefined)
668 s | CC1=C(C(=O)OCCC#N)C(c2ccccc2Cl)NC(=O)N1 (centres undefined)
733 s | O=C(c1ccc2c(c1)Sc1ncccc1C(=O)N2C1CC1)N1CCCCC1
899 s | O=C(c1ccc(-c2ccc3c(c2)CCN3S(=O)(=O)c2ccccc2F)cc1)N1CCOCC1

SMILES | RP-LC retention time
Cc1cc(N(CCCl)CCCl)ccc1/C=N/NC(=O)Cc1cc(=O)oc2cc(O)ccc12 | 862 s
